Results on 37 compounds are retold here after patent US11261186B2, “Biaryl derivative as GPR120 agonist” (LG CHEM, LTD., priority 2014, dated 2022).

This assay concerns the target T1, hGPR120 (Homo sapiens, UniProt Q5NUL3).
T1 construct: expressed in transfected cells; host or cells: CHO-K1
T1 sequence (Q5NUL3 1-361): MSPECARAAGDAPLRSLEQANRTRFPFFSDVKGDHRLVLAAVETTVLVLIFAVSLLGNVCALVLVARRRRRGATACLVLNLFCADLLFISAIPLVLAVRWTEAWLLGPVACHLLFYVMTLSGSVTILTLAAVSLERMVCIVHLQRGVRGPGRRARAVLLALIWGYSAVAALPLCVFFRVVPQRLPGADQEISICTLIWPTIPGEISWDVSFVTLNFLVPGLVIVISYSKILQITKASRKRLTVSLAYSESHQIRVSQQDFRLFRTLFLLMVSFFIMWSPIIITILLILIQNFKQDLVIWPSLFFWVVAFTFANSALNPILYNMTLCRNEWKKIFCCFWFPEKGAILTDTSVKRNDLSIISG
Briefly: Measurement of Activity of GPR120 Agonist (Cell-Based Assay), Calcium 5 dye fluorescence. The conditions noted are these: CHO-K1 cells expressing Ga16 and hGPR120. Summed up:
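CHO-K1 cells co-expressing Gα16 and hGPR120, plated 18 h, loaded 1 h at 37°C with Calcium 5 dye. Serially diluted agonists added at 0.5% DMSO final; fluorescence read at Ex 485/Em 525 nm and expressed as relative % of DMSO-only signal.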

Each structure is given as a SMILES string. pEC50: −log10 of the molar value.

Broadly, the pEC50 is −log10 of the EC50, conventionally taken in molar units. As for `CC1(C)Cc2c(cccc2-c2ccc(OCCCC(=O)O)c(F)c2)O1` [Example 194, 4-[4-(2,2-dimethyl-2,3-dihydro-benzofuran-4-yl)-2-fluoro-phenoxy]-butyric acid], the pEC50 was over 6.70. With `CN(CCCC(=O)O)c1c(F)cc(-c2cccnc2SC2CCC2)cc1F` [Example 195, 4-{[4-(2-cyclobutylsulfanyl-pyridin-3-yl)-2,6-difluoro-phenyl]-methyl-amino}-butyric acid], the pEC50 is over 6.70. `CN(CCCC(=O)O)c1c(F)cc(-c2cccnc2OC2CCCC2)cc1F` [Example 196, 4-{[4-(2-cyclopentyloxy-pyridin-3-yl)-2,6-difluoro-phenyl]-methyl-amino}-butyric acid]: the pEC50 is over 6.70. Consider `CN(CCCC(=O)O)c1c(F)cc(-c2cccnc2SC2CCCC2)cc1F` [Example 197, 4-{[4-(2-cyclopentylsulfanyl-pyridin-3-yl)-2,6-difluoro-phenyl]-methyl-amino}-butyric acid], for which the pEC50 was over 6.70. The same measure for `CN(CCCC(=O)O)c1c(F)cc(-c2cccc(OC3CCC3)c2)cc1F` [Example 199, 4-[(3′-cyclobutoxy-3,5-difluoro-biphenyl-4-yl)-methyl-amino]-butyric acid]: over 6.70; for `O=C(O)CCCn1ccc2cc(-c3cccnc3SC3CCCC3)ccc21` [Example 200, 4-[5-(2-cyclopentylsulfanyl-pyridin-3-yl)-indol-1-yl]-butyric acid]: 5.70 to 6.70.

As to `CN(CCCC(=O)O)c1c(F)cc(-c2cccc(N3CCCC3)c2)cc1F` [Example 201, 4-[(3,5-difluoro-3′-pyrrolidin-1-yl-biphenyl-4-yl)-methyl-amino]-butyric acid], the pEC50 was 5.70 to 6.70. Then `CN(CCCC(=O)O)c1c(F)cc(-c2cccc(SC3CCC3)n2)cc1F` [Example 202, 4-{[4-(6-cyclobutylsulfanyl-pyridin-2-yl)-2,6-difluoro-phenyl]-methyl-amino}-butyric acid], with over 6.70; and `CN(CCCC(=O)O)c1c(F)cc(-c2cccc3c2OC(F)(F)O3)cc1F` [Example 203, 4-{[4-(2,2-difluoro-benzo[1,3]dioxol-4-yl)-2,6-difluoro-phenyl]-methyl-amino}-butyric acid], with over 6.70. With `CN(CCCC(=O)O)c1c(F)cc(-c2cccc(OC3CCCC3)n2)cc1F` [Example 204, 4-{[4-(6-cyclopentyloxy-pyridin-2-yl)-2,6-difluoro-phenyl]-methyl-amino}-butyric acid], the pEC50 was over 6.70. On to `CN(CCCC(=O)O)c1c(F)cc(-c2cccc(OC3CCC3)n2)cc1F` [Example 205, 4-{[4-(6-cyclobutoxy-pyridin-2-yl)-2,6-difluoro-phenyl]-methyl-amino}-butyric acid], for which the negative-log EC50 (pEC50) was over 6.70. For `CN(CCCC(=O)O)c1c(F)cc(-c2cccnc2OC2CCC2)cc1F` [Example 206, 4-{[4-(2-cyclobutoxy-pyridin-3-yl)-2,6-difluoro-phenyl]-methyl-amino}-butyric acid], the pEC50 was over 6.70. The same measure for `CCCSc1ncccc1-c1cc(F)c(N(C)CCCC(=O)O)c(F)c1` [Example 207, 4-{[2,6-difluoro-4-(2-propylsulfanyl-pyridin-3-yl)-phenyl]-methyl-amino}-butyric acid]: over 6.70. As for `CCSc1ncccc1-c1cc(F)c(N(C)CCCC(=O)O)c(F)c1` [Example 208, 4-{[4-(2-ethylsulfanyl-pyridin-3-yl)-2,6-difluoro-phenyl]-methyl-amino}-butyric acid], the pEC50 was over 6.70. Consider `CN(CCCC(=O)O)c1ccc(-c2cccnc2SC2CCC2)cc1F` [Example 209, 4-{[4-(2-cyclobutylsulfanyl-pyridin-3-yl)-2-fluoro-phenyl]-methyl-amino}-butyric acid], for which the pEC50 is over 6.70. The same measure for `O=C(O)C1CC1CNc1c(F)cc(-c2cccnc2SC2CCCC2)cc1F` (stereo not shown) [Example 210, 2-{[4-(2-cyclopentylsulfanyl-pyridin-3-yl)-2,6-difluoro-phenylamino]-methyl}-cyclopropanecarboxylic acid]: over 6.70; for `O=C(O)C1CC1CNc1ccc(-c2cccnc2SC2CCCC2)cc1` (stereo not shown) [Example 211, 2-{[4-(2-cyclopentylsulfanyl-pyridin-3-yl)-phenylamino]-methyl}-cyclopropanecarboxylic acid]: 5.70 to 6.70; for `CC(C)Sc1ncccc1-c1ccc(N(C)CCCC(=O)O)c(F)c1` [Example 212, 4-{[2-fluoro-4-(2-isopropylsulfanyl-pyridin-3-yl)-phenyl]-methyl-amino}-butyric acid]: over 6.70. Turning to `CN(CCCC(=O)O)c1ccc(-c2cccnc2SC2CCCC2)cc1F` [Example 213, 4-{[4-(2-cyclopentylsulfanyl-pyridin-3-yl)-2-fluoro-phenyl]-methyl-amino}-butyric acid], the pEC50 is over 6.70.

As to `CC(C)Oc1ncccc1-c1cc(F)c(N(C)CCCC(=O)O)c(F)c1` [Example 214, 4-{[2,6-difluoro-4-(2-isopropoxy-pyridin-3-yl)-phenyl]-methyl-amino}-butyric acid], the pEC50 was 5.70 to 6.70. As for `CN(CCCC(=O)O)c1c(F)cc(-c2ccccc2NC2CCCC2)cc1F` [Example 215, 4-[(2′-cyclopentylamino-3,5-difluoro-biphenyl-4-yl)-methyl-amino]-butyric acid], the pEC50 is over 6.70. Then `CC(C)Oc1ccc(F)cc1-c1cc(F)c(N(C)CCCC(=O)O)c(F)c1` [Example 216, 4-[methyl-(3,5,5′-trifluoro-2′-isopropoxy-biphenyl-4-yl)-amino]-butyric acid], with over 6.70; and `Cc1cnc(OC2CCCC2)c(-c2cc(F)c(N(C)CCCC(=O)O)c(F)c2)c1` [Example 217, 4-{[4-(2-cyclopentyloxy-5-methyl-pyridin-3-yl)-2,6-difluoro-phenyl]-methyl-amino}-butyric acid], with over 6.70; and `CN(CCCC(=O)O)c1c(F)cc(-c2cccnc2OCC2CCC2)cc1F` [Example 218, 4-{[4-(2-cyclobutylmethoxy-pyridin-3-yl)-2,6-difluoro-phenyl]-methyl-amino}-butyric acid], with over 6.70. In the case of `COc1ncccc1-c1cc(F)c(N(C)CCCC(=O)O)c(F)c1` [Example 219, 4-{[2,6-difluoro-4-(2-methoxy-pyridin-3-yl)-phenyl]-methyl-amino}-butyric acid], the pEC50 is 4.70 to 5.70. Then `CN(CCCC(=O)O)c1c(F)cc(-c2ccccc2N2CCCC2)cc1F` [Example 221, 4-[(3,5-difluoro-2′-pyrrolidin-1-yl-biphenyl-4-yl)-methyl-amino]-butyric acid], with over 6.70.

With `CNc1ccccc1-c1cc(F)c(N(C)CCCC(=O)O)c(F)c1` [Example 222, 4-[(3,5-difluoro-2′-methylamino-biphenyl-4-yl)-methyl-amino]-butyric acid], the negative logarithm of the EC50 (pEC50) is 5.70 to 6.70. The same measure for `CC(C)N(C)c1ccccc1-c1cc(F)c(N(C)CCCC(=O)O)c(F)c1` [Example 223, 4-{[3,5-difluoro-2′-(isopropyl-methyl-amino)-biphenyl-4-yl]-methyl-amino}-butyric acid]: over 6.70. With `CCN(CCCC(=O)O)c1c(F)cc(-c2cccnc2SC2CCC2)cc1F` [Example 224, 4-{[4-(2-cyclobutylsulfanyl-pyridin-3-yl)-2,6-difluoro-phenyl]-ethyl-amino}-butyric acid], the negative logarithm of the EC50 (pEC50) is 5.70 to 6.70. In the case of `CCN(CCCC(=O)O)c1c(F)cc(-c2cccnc2OCC2CCC2)cc1F` [Example 225, 4-{[4-(2-cyclobutylmethoxy-pyridin-3-yl)-2,6-difluoro-phenyl]-ethyl-amino}-butyric acid], the pEC50 was 5.70 to 6.70. On to `CCN(CCCC(=O)O)c1c(F)cc(-c2cccnc2OC(C)C)cc1F` [Example 226, 4-{[2,6-difluoro-4-(2-isopropoxy-pyridin-3-yl)-phenyl]-ethyl-amino}-butyric acid], for which the pEC50 was 5.70 to 6.70.

Regarding `C[C@H](CCCC(=O)O)c1c(F)cc(-c2cccnc2SC2CCC2)cc1F` [Example 227, (R)-5-[4-(2-cyclobutylsulfanyl-pyridin-3-yl)-2,6-difluoro-phenyl]-hexanoic acid], the pEC50 is over 6.70. The same measure for `C[C@H](C/C=C/C(=O)O)c1c(F)cc(-c2cccnc2SC2CCC2)cc1F` [Example 228, (E)-(R)-5-[4-(2-cyclobutylsulfanyl-pyridin-3-yl)-2,6-difluoro-phenyl]-hex-2-enoic acid]: over 6.70; for `C[C@@H](CCCC(=O)O)c1c(F)cc(-c2cccnc2SC2CCC2)cc1F` [Example 229, (S)-5-[4-(2-cyclobutylsulfanyl-pyridin-3-yl)-2,6-difluoro-phenyl]-hexanoic acid]: over 6.70; for `CC(CCCC(=O)O)c1c(F)cc(-c2cccnc2OC2CCOC2)cc1F` (stereo not shown) [Example 230, 5-{2,6-difluoro-4-[2-(tetrahydro-furan-3-yloxy)-pyridin-3-yl]-phenyl}-hexanoic acid]: over 6.70. Regarding `CC(CCCC(=O)O)c1c(F)cc(-c2cccnc2OC2CCOCC2)cc1F` (stereo not shown) [Example 231, 5-{2,6-difluoro-4-[2-(tetrahydro-pyran-4-yloxy)-pyridin-3-yl]-phenyl}-hexanoic acid], the pEC50 was over 6.70. The same measure for `CC(CCCC(=O)O)c1c(F)cc(-c2cccnc2OC2COC2)cc1F` (stereo not shown) [Example 232, 5-{2,6-difluoro-4-[2-(oxetan-3-yloxy)-pyridin-3-yl]-phenyl}-hexanoic acid]: 5.70 to 6.70.
